For data set [1], the system named is Zymosan-induced mechanical hyperalgesia. Description: Zymosan-induced mechanical hyperalgesia (Randall-Selitto), model of inflammatory pain. Type of data set: in vivo, rat. Particulars: for ED50: read-out: ED50 4 hrs. The protocol:
In this model, typically a male Sprague-Dawley or Wistar rat (200-250 g) receives an interplantar injection of 3 mg/100 μl zymosan into one hind paw. A marked inflammation occurs in this hind paw. Drugs are administered orally for evaluation of efficacy, 30 min. before the inflammatory insult. […] The quantisation of the analgesic effect is achieved by an analgesimeter, which consists in applying to the inflamed paw an increasing weight (from 130-140 g up to 500 g). […] For each test compound, at least three doses were used, with 8 animals per group. Compounds of the invention were tested at 10, 20 and 40 mg/Kg.

Data set [2] addresses T1, recombinant human aggrecanase 1 (ADAMTS-4) (Homo sapiens, UniProt O75173).
T1 construct: ADAMTS-4 aminoacids F213-A579 with C-terminal tag; purchased Invitek GmbH, Berlin
T1 sequence (O75173 213-579): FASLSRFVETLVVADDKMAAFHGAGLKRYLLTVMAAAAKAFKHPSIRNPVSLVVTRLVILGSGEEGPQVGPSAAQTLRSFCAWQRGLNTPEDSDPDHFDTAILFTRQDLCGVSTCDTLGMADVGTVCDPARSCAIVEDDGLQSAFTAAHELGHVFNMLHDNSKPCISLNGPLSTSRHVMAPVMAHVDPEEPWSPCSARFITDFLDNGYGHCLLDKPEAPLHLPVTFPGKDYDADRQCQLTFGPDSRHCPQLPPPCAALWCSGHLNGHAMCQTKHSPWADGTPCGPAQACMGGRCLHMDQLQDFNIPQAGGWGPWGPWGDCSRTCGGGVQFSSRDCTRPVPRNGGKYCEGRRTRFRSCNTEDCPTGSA
Briefly: InviLISA Aggrecanase activity assay, aggrecanase 1. Type of data set: biochemical. Conditions: inhibitors tested at 10 μM final concentration. The protocol: (§1) The InviLISA Aggrecanase activity assay (Invitek GmbH, Berlin) was used to screen and characterise aggrecanase inhibitors. The assay was carried out in two steps, according to Will et al. (Will H, Dettloff M, Bendzko P, Svenshnikov P, A Quantitative Assay for aggrecanase Activity; 2005, Journal of Biomolecular Techniques, 16 (4), 459-472). A recombinant fragment of human aggrecan interglobular domain (aggrecan-IGD; T331-G458) is first digested with aggrecanase. Proteolytic cleavage of the substrate releases an aggrecan peptide with the N-terminal sequence ARGSVIL (ARGSVIL-peptide), that was then quantified with two monoclonal anti-peptide antibodies (ELISA module). For precise calculation of product, ARGSVIL-peptide standard concentrations were run in parallel.
(§2) 1) Proteolysis of aggrecan-IGD by aggrecanase. Aggrecan-IGD was incubated with standard recombinant human aggrecanase 1 (ADAMTS-4 aminoacids F213-A579 with C-terminal tag) or standard recombinant human aggrecanase 2 (ADAMTS-5 aminoacids S262-G625 with C-terminal tag) in the absence (total enzymatic activity) or presence (modulated enzymatic activity) of inhibitors to be tested. Enzymes were pre-incubated with the inhibitors or the appropriate concentration of diluent as control (DMSO 0.25% final concentration in proteolysis), at 4° C. for 30 min prior to assaying their activity. Five microliters of mix enzyme-inhibitor were added to the substrate (0.1 μM final concentration) in a total volume of 100 μL and incubated for 15 minutes at 37° C. The reaction was terminated with EDTA-containing buffer. The inhibitors were tested at 10 μM final concentration and compounds achieving ≧50% inhibitory effect were evaluated for IC50 calculation, in a range generally extended from 0.1 to 10 μM final concentration.
(§3) 2) Aggrecan peptide ELISA. ARGSVIL-peptide standard, proteolytic digestion of Aggrecan-IGD with standard aggrecanases and test samples were incubated in microtiter wells pre-coated with anti-ARGSVIL-neoepitope antibody. ARGSVIL-peptide is bound to the coated antibody, while other components are removed by washing and aspiration. The bound ARGSVIL-peptide was detected with a second peroxidase-labelled antibody. Any excess of the conjugate was removed by washing and aspiration. The amount of peroxidase bound to different wells was determined in reactions with peroxidase substrate TMB. The reactions are stopped by addition of sulphuric acid solution and absorbance is read at 450 nm in a microtiter plate spectrophotometer.

The target of data set [3] is T2, recombinant human aggrecanase 2 (ADAMTS-5) (Homo sapiens, UniProt Q9UNA0).
T2 construct: ADAMTS-5 aminoacids S262-G625 with C-terminal tag; purchased Invitek GmbH, Berlin
T2 sequence (Q9UNA0 262-625): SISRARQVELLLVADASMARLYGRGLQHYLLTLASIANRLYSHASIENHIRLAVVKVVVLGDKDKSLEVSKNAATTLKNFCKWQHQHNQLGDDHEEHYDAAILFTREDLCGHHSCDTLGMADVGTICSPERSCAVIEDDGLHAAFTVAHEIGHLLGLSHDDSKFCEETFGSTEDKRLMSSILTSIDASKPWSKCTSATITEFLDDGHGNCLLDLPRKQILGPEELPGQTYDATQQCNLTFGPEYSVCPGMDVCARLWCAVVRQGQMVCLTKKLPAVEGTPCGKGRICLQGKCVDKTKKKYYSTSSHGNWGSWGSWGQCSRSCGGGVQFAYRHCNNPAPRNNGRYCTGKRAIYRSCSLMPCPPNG
Briefly: InviLISA Aggrecanase activity assay, aggrecanase 2. Type of data set: biochemical. Conditions: for inhibition at 10 µM: inhibitors tested at 10 μM final concentration. The protocol:
as §1, §2, §3

For data set [4], the system named is CFA-induced prolonged inflammation. Description: CFA model of chronic inflammatory pain (Randall-Selitto). Type of data set: in vivo, rat. Conditions: for MPE 0.5 hrs / MPE 1.5 hrs / MPE 3 hrs / MPE 6 hrs / MPE 24 hrs: NE = not effective.
Data set [5] relates to mechanical hyperalgesia associated with STZ-induced diabetes. Briefly: STZ-induced diabetes mechanical hyperalgesia, model of neuropathic pain (Randall-Selitto). The class given is in vivo, rat. Conditions: for MPE 0.5 hrs / MPE 1.5 hrs / MPE 3 hrs: NE = not effective. The procedure:
Painful diabetic neuropathy is one of the most common complications of insulin-dependent diabetes in man; in particular, diabetes can be associated with neuropathic pain which fails to be treated by classical analgesics. Streptozotocin (STZ)-induced diabetes in the rat has been increasingly used as a model of painful diabetic neuropathy to assess the efficacies of potential analgesic agents (C. Courteix, Pain 1993, 53, 81-8). A representative compound of the invention was tested for efficacy in reducing mechanical hyperalgesia associated with STZ-induced diabetes in the rat, according to the experimental model as described by the literature. Diabetes was produced with the injection of a single dose (75 mg/Kg i.p.) of STZ. In the following four weeks after the induction of diabetes the clinical symptoms (weight, body and skin temperature, motility and hyperglycemia) progressively developed by the animals, are strictly monitored.
After four weeks, the scores obtained in diabetic rats to various pain stimuli (in particular mechanical stimuli) were greater than those in normal rats, indicating hyperalgesia. The hyperalgesia induced by diabetes was evaluated using the Randall-Selitto method as above described, and quantitated using the analgesimeter. Also in this case, the difference in the mechanical pain threshold between the basal value (generally 230-250 g) and the one tolerated by the animals treated with the drug, is defined as mechanical hyperalgesia. The compound of the invention was administered i.p. (solution, Tween 80, 10% in saline) at different doses, and mechanical hyperalgesia was measured at the reported time, as maximum percent effect (MPE) which represents the difference (%) in pain threshold between the animals treated with the drug and the controls that received only the vehicle, compared with the weight borne by naïf non-diabetic controls. A 100% protection means that the diabetic animals treated with the compound can tolerate the same stimulus (weight) as the naïf non-diabetic animals. MPE higher than 100% means that the diabetic animal treated with the compound can tolerate stimuli (weight) higher than the control non-diabetic animals (hypoalgesia).
In Table 4, the effect of a representative compound of formula (I), in the above described model of neuropathic pain, is compared with some known pharmacological standards used for the clinical treatment of this pathology. In particular, from the MPE data at 0.5 hrs, the doses yielding a protection of 50% (ED50) and 100% (ED100) have been calculated.

Where [6] appears, read: rat, OS, 4 hrs after zymosan, NC = not calculable.

We go through ten compounds from US8372866B2, “2-aryl and 2-heteroaryl 4H-1-benzopyran-4-one-6-amidino derivatives, new pharmacological agents for the treatment of arthritis, cancer and related pain” (Rottapharm S.p.A., priority 2008, dated 2013).

SMILES strings stand for the structures. Counter-ions that a name gives are not always drawn. Like-named read-outs stand apart in the source and are kept apart here.

As for `Cc1ccc(-c2cc(C(F)(F)F)nn2-c2ccc(S(N)(=O)=O)cc2)cc1` [Celecoxib, reference compound], the ED50 (as a rule, the dose that gives a 50% effect, or the effect in half of the subjects) in data set [1] (setting [6]) is 9 mg/kg.
Regarding `COc1ccc(-c2cc(=O)c3cc(NC(C)=N)ccc3o2)cc1` [Example 2, 2-(4-methoxyphenyl)-6-[(1-iminoethyl)amino]-4H-1-benzopyran-4-one hydrochloride monohydrate], the inhibition at 10 µM in data set [2] and in data set [3] was 30% in each case. For the same compound, the ED50 in data set [1] (Rattus norvegicus, 4 h) stood at 6.5 mg/kg; in data set [4] (Rattus norvegicus, ip, 0.5 h, read-out: ED50 0.5 hrs), 1.56 mg/kg. The “ED100 4 hrs” value in data set [1] (setting [6]) is 18 mg/kg. The “MPE 0.5 hrs” value is on record as 91% in data set [4] (3 mg/Kg IP), 193% in data set [4] (10 mg/Kg IP) and 254% in data set [4] (30 mg/Kg IP). The “MPE 1.5 hrs” value in data set [4] (3 mg/Kg IP) amounted to 87%; in data set [4] (10 mg/Kg IP), 105%; in data set [4] (30 mg/Kg IP), 190%. In addition, the figures for the “MPE 3 hrs” value in data set [4] (3 mg/Kg IP), in data set [4] (10 mg/Kg IP) and in data set [4] (30 mg/Kg IP) were 32%, 42% and 146%, respectively. Further, the “MPE 6 hrs” value in data set [4] (10 mg/Kg IP) amounted to 43%; in data set [4] (30 mg/Kg IP), 89%. For the same compound, the “MPE 24 hrs” value in data set [4] (10 mg/Kg IP) was found to be 38%; in data set [4] (30 mg/Kg IP), 45%. Also, the “ED100 0.5 hrs” value in data set [4] (IP, calculated from the MPE data at 0.5 hrs) is recorded as 3.15 mg/kg.
Consider `CC(=N)Nc1ccc2oc(-c3ccc(F)cc3)cc(=O)c2c1` [Example 3, 2-(4-fluorophenyl)-6-[(1-iminoethyl)amino]-4H-1-benzopyran-4-one], for which, in data set [2], the inhibition – broadly, the change of the read-out against control, counted positive when it falls – at 10 µM was 40%. For the same compound, the IC50 (commonly the concentration that inhibits the measured activity by half) in data set [3] amounted to 10 µM. In data set [1] (setting [6]), the “ED100 4 hrs” value is 24 mg/kg and the ED50 was 12 mg/kg.
Take `CC(=N)Nc1ccc2oc(-c3ccc4c(c3)OCO4)cc(=O)c2c1` [Example 4, 2-(benzo[1,3]dioxol-5-yl)-6-[(1-iminoethyl)amino]-4H-1-benzopyran-4-one hydrochloride]: the results for the inhibition at 10 µM in data set [2] and in data set [3] were 40% and 10%, respectively. In addition, in data set [1] (Rattus norvegicus, 4 h), the ED50 was found to be 12 mg/kg. Also, in data set [1] (setting [6]), the “ED100 4 hrs” value is 35 mg/kg.
In the case of `CC(=N)Nc1ccc2oc(-c3ccc4c(c3)OCO4)c(O)c(=O)c2c1` [Example 16, 2-(benzo[1,3]dioxol-5-yl)-3-hydroxy-6-[(1-iminoethyl)amino]-4H-1-benzopyran-4-one hydrochloride], the inhibition at 10 µM in data set [2] was 32%. The IC50 in data set [3] came to 5 µM.
The like results for `N=C(CC1CC1)Nc1ccc2oc(-c3ccc4c(c3)OCO4)c(O)c(=O)c2c1` [Example 18] were, in that order, 0% and 4.3 µM.
The like results for `COCCC(=N)Nc1ccc2oc(-c3ccc4c(c3)OCO4)c(O)c(=O)c2c1` [Example 19, 2-(benzo[1,3]dioxol-5-yl)-3-hydroxy-6-[(1-iminopropyl-3-methoxy)amino]-4H-1-benzopyran-4-one hydrochloride] were, in that order, 0% and 8 µM.
The like results for `COc1ccc(-c2oc3ccc(NC(C)=N)cc3c(=O)c2O)cn1` [Example 20, 2-(6-methoxypyridin-3-yl)-3-hydroxy-6-[(1-iminoethyl)amino]-4H-1-benzopyran-4-one] were, in that order, 0% and 2.2 µM.
Consider `CS(=O)(=O)Nc1ccc([N+](=O)[O-])cc1Oc1ccccc1` [Nimesulide, reference compound], for which the ulcerative side effects result in data set [1] (even at the higher doses tested) is recorded as “ulcerative side effects”. Besides, in data set [1] (setting [6]), the ED50 was 5 mg/kg.
With `COc1cccc(C2(O)CCCCC2CN(C)C)c1` (stereo not drawn) [Tramadol], the ED50 was 25.7 mg/kg in data set [1] (Rattus norvegicus, 4 h) and 10.9 mg/kg in data set [5] (Rattus norvegicus, ip, 0.5 h, read-out: ED50 0.5 hrs, IP, calculated from the MPE data at 0.5 hrs, NC = not calculable). Further, the “MPE 0.5 hrs” value is listed as 26% in data set [5] (3 mg/Kg IP), 58% in data set [5] (10 mg/Kg IP), 54% in data set [5] (30 mg/Kg IP) and 81% in data set [5] (50 mg/Kg IP). The “MPE 1.5 hrs” value in data set [5] (3 mg/Kg IP) worked out at 53%; in data set [5] (10 mg/Kg IP), 48%; in data set [5] (30 mg/Kg IP), 64%; in data set [5] (50 mg/Kg IP), 60%. The “MPE 3 hrs” value in data set [5] (10 mg/Kg IP) amounted to 27%; in data set [5] (30 mg/Kg IP) it was 23%; in data set [5] (50 mg/Kg IP), 43%.
